Measured values taken from ChEMBL document CHEMBL1123455, “Conformational effects on the activity of drugs. 11. Stereostructural models for the direct activation of the alpha- and beta-adrenergic receptor” (J Med Chem, 1986).

How the values were obtained:
[1] = target: T1, Adrenergic receptor alpha (Rattus norvegicus) (UniProt P15823+P23944+P43140+P22086+P19328+P22909); experiment: Intrinsic activity against alpha-adrenoceptor in isolated rat vas deferens; assay type: tissue-based
[2] = target: T1, Adrenergic receptor alpha (Rattus norvegicus); experiment: Intrinsic activity against alpha-adrenoceptor in isolated rat tail artery
[3] = target: T2, Adrenergic receptor beta (Homo sapiens) (UniProt P08588+P07550+P13945); experiment: Intrinsic activity beta adrenergic receptor in isolated guinea pig tracheal strip; conditions: Cavia porcellus; target entry is the homologue from another species
[4] = target: T2, Adrenergic receptor beta (Homo sapiens); conditions: Cavia porcellus
Description: Compound was tested for beta adrenergic receptor activity in isolated guinea pig atria

[5] = target: T2, Adrenergic receptor beta (Homo sapiens); conditions: Cavia porcellus; remark: listed apart in the source
Description: Compound was tested for beta adrenergic receptor activity in isolated guinea pig tracheal strip

[6] = target: T1, Adrenergic receptor alpha (Rattus norvegicus); conditions: Vas deferens
Description: Compound was tested for alpha-adrenoceptor activity in isolated rat vas deferens

[7] = target: T1, Adrenergic receptor alpha (Rattus norvegicus); conditions: Artery
Description: Compound was tested for alpha-adrenoceptor activity in isolated rat tail artery

[8] = target: T2, Adrenergic receptor beta (Homo sapiens); conditions: Cavia porcellus; remark: listed apart in the source
Description: Compound was tested for beta-adrenoceptor activity in isolated guinea pig atria

Structure (SMILES) | Intrinsic activity [1] | Intrinsic activity [2] | pD2 [4] | pD2 [5] | other results
Oc1ccc(C2CNCCO2)cc1O (centres undefined) | 0.91 | 0.92 |  |  | 
Oc1ccc(C2(O)CCCNC2)cc1O (centres undefined) | 0.95 | 1 |  |  | Intrinsic activity [3]: 0.77
CC(C)N[C@@H]1CCc2c(ccc(O)c2O)[C@H]1O |  |  | 7.56 | 8.41 | 
NC[C@H](O)c1ccc(O)c(O)c1 | 1 | 1 |  | 6.04 | pD2 [6]: 4.96; pD2 [7]: 6.16; pD2 [8]: 6.5
CC(C)N1CCOC(c2ccc(O)c(O)c2)C1 (centres undefined) |  |  | 5.74 | 6.34 | 
NC1CCc2c(ccc(O)c2O)[C@H]1O (some centres undefined) |  |  | 6.74 | 7.49 | 
CC(C)N1CCCC(O)(c2ccc(O)c(O)c2)C1 (centres undefined) |  |  | 8.14 | 8.26 | 
